According to PMC8577994 (Cell Reports, 2021):
Where two headings read alike, the source gives them in different places.

Legend:
[1] = test system: HCV; conditions: cited from earlier work
[2] = in vitro; conditions: human
[3] = test system: PI3P; type: cell-based
[4] = in vitro; conditions: human; remark: listed apart in the source
[5] = in vitro; conditions: human; remark: listed apart in the source
[6] = test system: HCV reporter virus JcR2a; type: cell-based, hepatitis C virus; conditions: HCV infection system, Huh7-derived cells expressing CD81
[7] = test system: SARS-CoV-2; test: microbe, parasite or virus in culture; conditions: Severe acute respiratory syndrome coronavirus 2, A549-ACE2, read-out: EC50, SARS-CoV-2
[8] = test system: HA-nsp3-4-V5-induced DMVs; type: cell-based
[9] = test system: SARS-CoV-2; test: qRT-PCR-based SARS-CoV-2 replication assay in Calu-3 cells; type: cell-based
[10] = test system: SARS-CoV-2
[11] = test system: Huh7-Lunet/T7 cells
[12] = test system: PI4P; type: cell-based; conditions: Huh7-Lunet/T7 cells expressing HCV NS3-5B, 1 µM for 2 h

Cn1cnc(N)c2ncnc1-2 [3-methyladenine]
abundance of LC3-II in HCV-infected cells ([1]; PI3K inhibitor, ref Su et al., 2011): reduces

CCC(CC)COC(=O)[C@H](C)N[P@](=O)(OC[C@H]1O[C@@](C#N)(c2ccc3c(N)ncnn23)[C@H](O)[C@@H]1O)Oc1ccccc1 [Remdesivir]
CC50 [2]: > 10000 nM

COC[C@H]1OC(=O)c2coc3c2[C@@]1(C)C1=C(C3=O)[C@@H]2CCC(=O)[C@@]2(C)C[C@H]1OC(C)=O [wortmannin]
HCV replication ([1]; inhibition of PI3K activity, ref Mohl et al., 2016): impairs

COC(=O)N[C@H](C(=O)N1CCC[C@H]1c1nc(-c2ccc(-c3ccc(-c4c[nH]c([C@@H]5CCCN5C(=O)[C@@H](NC(=O)OC)C(C)C)n4)cc3)cc2)c[nH]1)C(C)C [Daclatasvir]
number of GFP-DFCP1 puncta in NS3-5B-expressing cells (NS5A wildtype) [3]: blunted
reduction of GFP-DFCP1 abundance in cells expressing NS3-5B with NS5A Y93H [3]: not observed
CC50 [4]: > 25 nM
DMV formation ([1]; NS5A inhibitor, ref Berger et al., 2014): block
CC50 [5]: > 25 nM

Nc1ncc(-c2ccnc(Nc3ccncc3)n2)c(CC2CC2)n1 [PIK-III]
selectivity index (ratio of EC50 and CC50) [6]: > 10
EC50 [7]: ~170 nM
number of HA-nsp3-4-V5-induced DMVs [8]: significantly reduced
abundance of GFP-DFCP1 puncta in SARS-CoV-2-infected cells [3]: reduced
abundance of GFP-DFCP1 puncta in starved cells [3]: reduced to background levels
number of GFP-DFCP1 puncta in HCV-replicating cells [3]: diminished
SARS-CoV-2 replication efficiency [9]: inhibition
fold by which EC50 is below the CC50 value ([10]; A549/ACE2 cells): ≥ 250 fold
EC50 ([10]; read-out: EC50, SARS-CoV-2): 172 nM
cell viability in HCV NS3-5B-transfected cells [11]: neither affected
cell viability in SARS-CoV-2 HA-nsp3-4-V5-transfected cells [11]: did not affect
elevation of PI4P (PI4P puncta) [12]: no effect
